# Key:
# Cereblon (CRBN) [1] = target: T1, Cereblon (CRBN) (Homo sapiens, UniProt Q96SW2); test: cryo-EM structure ([…] Å and […] Å); TR-FRET thalidomide displacement (IC50); FIDA and SEC-MALS; format: binding; design: 6xHis-CRBN-DDB1 complex (per checker note), TR-FRET thalidomide displacement; not the cryo-EM CRBN 41-442/DDB1ΔBPB homodimer
# Target sequence in this assay (Q96SW2 whole entry): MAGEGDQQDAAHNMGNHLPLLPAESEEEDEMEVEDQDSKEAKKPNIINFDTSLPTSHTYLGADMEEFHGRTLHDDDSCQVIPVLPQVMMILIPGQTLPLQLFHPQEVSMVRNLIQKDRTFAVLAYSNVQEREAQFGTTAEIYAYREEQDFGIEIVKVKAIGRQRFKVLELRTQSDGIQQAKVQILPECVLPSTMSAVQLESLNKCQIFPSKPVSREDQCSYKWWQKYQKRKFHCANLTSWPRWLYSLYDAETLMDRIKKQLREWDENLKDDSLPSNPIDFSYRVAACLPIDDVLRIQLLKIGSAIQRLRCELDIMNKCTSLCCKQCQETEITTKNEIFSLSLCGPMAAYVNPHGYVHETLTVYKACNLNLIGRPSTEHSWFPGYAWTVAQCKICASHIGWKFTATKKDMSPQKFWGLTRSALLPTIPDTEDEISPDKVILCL
# Target sequence in this assay (Q16531 2-1140 partner): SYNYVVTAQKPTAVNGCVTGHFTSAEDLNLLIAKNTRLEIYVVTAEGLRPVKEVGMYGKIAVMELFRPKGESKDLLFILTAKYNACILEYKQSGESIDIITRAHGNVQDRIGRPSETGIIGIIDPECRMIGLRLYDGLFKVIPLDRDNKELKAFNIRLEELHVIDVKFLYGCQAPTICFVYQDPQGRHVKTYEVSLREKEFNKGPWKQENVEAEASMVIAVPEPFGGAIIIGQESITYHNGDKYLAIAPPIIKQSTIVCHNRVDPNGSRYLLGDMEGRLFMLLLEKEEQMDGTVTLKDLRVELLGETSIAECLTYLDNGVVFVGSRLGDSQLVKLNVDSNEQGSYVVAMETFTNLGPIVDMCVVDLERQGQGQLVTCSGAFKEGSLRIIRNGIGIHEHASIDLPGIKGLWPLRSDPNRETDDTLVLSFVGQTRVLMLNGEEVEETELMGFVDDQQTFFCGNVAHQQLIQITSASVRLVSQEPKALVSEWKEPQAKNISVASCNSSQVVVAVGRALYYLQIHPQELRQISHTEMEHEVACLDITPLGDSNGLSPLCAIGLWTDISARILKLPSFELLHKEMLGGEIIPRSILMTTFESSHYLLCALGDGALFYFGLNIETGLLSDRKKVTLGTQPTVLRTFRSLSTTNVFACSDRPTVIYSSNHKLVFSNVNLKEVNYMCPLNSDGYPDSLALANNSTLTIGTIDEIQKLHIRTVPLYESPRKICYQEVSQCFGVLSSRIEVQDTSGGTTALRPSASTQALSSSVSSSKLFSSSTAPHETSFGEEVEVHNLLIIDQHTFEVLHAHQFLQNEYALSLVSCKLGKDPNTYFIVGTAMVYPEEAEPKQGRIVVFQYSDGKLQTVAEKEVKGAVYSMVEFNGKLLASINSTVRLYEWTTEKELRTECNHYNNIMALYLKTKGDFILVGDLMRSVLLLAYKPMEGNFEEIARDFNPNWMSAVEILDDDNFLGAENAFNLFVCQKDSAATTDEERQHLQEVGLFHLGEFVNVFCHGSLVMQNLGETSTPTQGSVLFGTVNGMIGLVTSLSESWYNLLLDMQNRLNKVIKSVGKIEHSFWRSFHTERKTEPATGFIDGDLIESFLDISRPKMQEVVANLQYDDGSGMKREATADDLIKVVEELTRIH
# Cereblon (CRBN) [2] = target: T1, Cereblon (CRBN); test: TR-FRET displacement of Cy5-thalidomide from CRBN-DDB1; format: binding; design: 6xHis-CRBN-DDB1 complex; with DDB1
# Target sequence in this assay (Q96SW2 40-442): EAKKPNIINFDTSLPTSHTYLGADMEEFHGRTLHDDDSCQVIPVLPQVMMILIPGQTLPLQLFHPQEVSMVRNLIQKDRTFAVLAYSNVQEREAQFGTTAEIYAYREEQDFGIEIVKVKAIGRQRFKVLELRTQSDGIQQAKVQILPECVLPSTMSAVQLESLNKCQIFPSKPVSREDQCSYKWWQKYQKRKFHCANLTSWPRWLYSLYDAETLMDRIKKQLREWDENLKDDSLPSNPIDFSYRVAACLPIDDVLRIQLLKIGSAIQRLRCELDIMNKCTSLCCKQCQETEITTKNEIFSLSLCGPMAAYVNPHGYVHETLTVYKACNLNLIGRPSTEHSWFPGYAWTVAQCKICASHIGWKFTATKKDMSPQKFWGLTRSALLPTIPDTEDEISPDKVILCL
# Target sequence in this assay (Q16531 whole entry partner): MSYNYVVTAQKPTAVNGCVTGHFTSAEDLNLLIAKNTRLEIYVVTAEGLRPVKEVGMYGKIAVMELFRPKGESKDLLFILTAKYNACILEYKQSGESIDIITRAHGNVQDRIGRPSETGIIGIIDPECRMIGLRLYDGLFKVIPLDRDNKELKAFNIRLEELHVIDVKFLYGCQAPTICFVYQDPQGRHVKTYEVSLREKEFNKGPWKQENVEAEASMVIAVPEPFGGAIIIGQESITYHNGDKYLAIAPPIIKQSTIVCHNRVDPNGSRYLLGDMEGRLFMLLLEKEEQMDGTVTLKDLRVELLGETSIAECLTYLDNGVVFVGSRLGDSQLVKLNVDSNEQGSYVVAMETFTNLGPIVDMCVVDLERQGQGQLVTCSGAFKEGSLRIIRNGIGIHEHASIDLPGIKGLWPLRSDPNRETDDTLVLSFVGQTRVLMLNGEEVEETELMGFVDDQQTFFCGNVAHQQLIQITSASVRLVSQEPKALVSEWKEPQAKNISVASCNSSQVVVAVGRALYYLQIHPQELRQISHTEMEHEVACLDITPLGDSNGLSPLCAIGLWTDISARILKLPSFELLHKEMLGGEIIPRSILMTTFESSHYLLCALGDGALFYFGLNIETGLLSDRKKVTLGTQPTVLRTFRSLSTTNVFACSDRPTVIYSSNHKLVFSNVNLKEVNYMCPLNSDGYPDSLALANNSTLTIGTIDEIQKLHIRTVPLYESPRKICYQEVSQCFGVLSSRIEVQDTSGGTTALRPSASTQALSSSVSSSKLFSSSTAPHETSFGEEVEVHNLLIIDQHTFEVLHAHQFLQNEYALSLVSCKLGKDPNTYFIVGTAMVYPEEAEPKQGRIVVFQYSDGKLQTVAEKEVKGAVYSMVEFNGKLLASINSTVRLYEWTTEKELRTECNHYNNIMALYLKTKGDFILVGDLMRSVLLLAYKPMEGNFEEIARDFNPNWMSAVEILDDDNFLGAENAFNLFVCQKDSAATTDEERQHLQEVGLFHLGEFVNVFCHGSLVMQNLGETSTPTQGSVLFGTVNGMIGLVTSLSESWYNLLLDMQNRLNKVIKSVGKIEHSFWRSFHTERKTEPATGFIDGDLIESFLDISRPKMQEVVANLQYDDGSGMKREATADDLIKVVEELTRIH
IC50 (Cereblon (CRBN) [1]),IC50 (Cereblon (CRBN) [2]),Compound
14 nM,,O=C1CCC(N2Cc3ccc(N4CCC5(CCN(C(=O)c6ccccc6)CC5)C4)cc3C2=O)C(=O)N1 (centres unmarked) [MRT-31619]
,60 nM,O=C1CCC(N2Cc3ccc(N4CCC5(CCN(Cc6ccccc6)CC5)C4)cc3C2=O)C(=O)N1 (centres unmarked) [MRT-30568]

# From paper PMC12630686, “A degron-mimicking molecular glue drives CRBN homo-dimerization and degradation” (Nature Communications, 2025)
